This note sets out measurements from patent publication US20110263650A1 (priority 2007, published 2011).

Converted amounts (≈) assume the structure as drawn. Read-outs that look alike come from different tables or passages of the source.

Data set [1] relates to L929 mouse fibroblasts (DSMZ ACC 2). Description: Growth inhibition assay (MTT), L929. The settings on record: for IC50: Mus musculus; for Cytotoxicity / activity in words: Tables 1 and 2, cell line not given.
Data set [2] deals with SW-480 human colon adenocarcinoma (ATCC CCL-228). Description: Growth inhibition assay (MTT), SW-480. The format is cell-based. Particulars: for IC50: SW480, 120 h, read-out: IC50 SW-480; for Activity in SW-480 compared with tubulysin D, in words: colon cancer cell line SW-480.
Data set [3] has as its system KB-3-1 human cervix carcinoma (DSMZ ACC 158). Description: Growth inhibition assay (MTT), KB-3-1. Type of data set: cell-based. The settings on record: KB 3-1, 120 h, read-out: IC50 KB-3-1.
[4] abbreviates: L929, 120 h, read-out: IC50 L929.

Consider `CC[C@H](C)[C@H](NC(=O)[C@H]1CCCCN1C)C(=O)N(C)[C@H](C[C@@H](OC(C)=O)c1nc(C(=O)N[C@@H](Cc2ccccc2)C[C@H](C)C(=O)O)cs1)C(C)C` (stereo in doubt) [Analogue 10, 4-({2-[1-Acetoxy-4-methyl-3-(methyl-{3-methyl-2-[(1-methylpiperidine-2-carbonyl)-amino]-pentanoyl}-amino)-pentyl]-thiazole-4-carbonyl}-amino)-2-methyl-5-phenyl-pentanoic acid], for which the IC50 is 0.23 ng/mL (≈ 0.316 nM) in data set [1] (setting [4]), 0.016 ng/mL (≈ 0.022 nM) in data set [2] (Homo sapiens) and 0.13 ng/mL (≈ 0.179 nM) in data set [3] (Homo sapiens). Further, the “Fold less active than tubulysin D” value in data set [1] (cytotoxicity relative to tubulysin D) amounted to 4 fold. The “Activity in SW-480 compared with tubulysin D, in words” value in data set [2] is on record as “more active than tubulysin D”.
Consider `CC[C@H](C)[C@H](NC(=O)[C@H]1CCCCN1C)C(=O)N(C)[C@H](C[C@@H](OC(C)=O)c1nc(C(=O)NC)cs1)C(C)C` (stereo in doubt) [Analogue 11, acetic acid 4-methyl-1-(4-methylcarbamoyl-thiazol-2-yl)-3-(methyl-{3-methyl-2-[(1-methyl-piperidine-2-carbonyl)-amino]-pentanoyl}-amino)-pentyl ester], for which the IC50 worked out at 1.7 ng/mL (≈ 3.08 nM) in data set [1] (setting [4]); 2 ng/mL (≈ 3.62 nM) in data set [1] (L929, read-out: Cytotoxicity stated in text); 0.5 ng/mL (≈ 0.906 nM) in data set [2] (Homo sapiens); 1.2 ng/mL (≈ 2.17 nM) in data set [3] (Homo sapiens).
Regarding `CC[C@H](C)[C@H](NC(=O)[C@H]1CCCCN1C)C(=O)N(COC(=O)CC(C)C)[C@H](C[C@@H](OC(C)=O)c1nc(C(=O)N[C@@H](Cc2ccccc2)C[C@H](C)C(=O)O)cs1)C(C)C` [Analogue 1, Tubulysin D, reference compound], the IC50 is 0.056 ng/mL (≈ 0.0676 nM) in data set [1] (setting [4]); 0.022 ng/mL (≈ 0.0266 nM) in data set [2] (human colon adenocarcinoma, MTT after 5 days); 0.07 ng/mL (≈ 0.0845 nM) in data set [3] (human cervix carcinoma, MTT after 5 days).
Take `CC[C@H](C)[C@H](NC(=O)[C@H]1CCCCN1C)C(=O)N(COC(=O)CC(C)C)[C@H](C[C@@H](OC(C)=O)c1nc(C(=O)NCCc2ccccc2)cs1)C(C)C` [Analogue 2, 3-methyl-butyric acid ({1-[2-acetoxy-2-(4-phenethylcarbamoylthiazol-2-yl)-ethyl]-2-methyl-propyl}-{3-methyl-2-[(1-methyl-piperidine-2-carbonyl)-amino]-pentanoyl}-amino)-methyl ester]: the IC50 in data set [1] (setting [4]) was determined as 0.24 ng/mL (≈ 0.323 nM); in data set [2] (Homo sapiens), 0.3 ng/mL (≈ 0.404 nM); in data set [3] (Homo sapiens) it was 0.25 ng/mL (≈ 0.337 nM).
Turning to `CC[C@H](C)[C@H](NC(=O)[C@H]1CCCCN1C)C(=O)N(COC(=O)CC(C)C)[C@H](C[C@@H](OC(C)=O)c1nc(C(=O)NCCCC(=O)O)cs1)C(C)C` [Analogue 3, 3-Methyl-butyric acid ((1-{2-acetoxy-2-[4-(3-carboxy-propylcarbamoyl)-thiazol-2-yl]-ethyl)-2-methyl-propyl)-{3-methyl-2-[(1-methyl-piperidine-2-carbonyl)-amino]-pentanoyl}-amino)-methyl ester], the values for the IC50 in data set [1] (setting [4]), in data set [2] (Homo sapiens) and in data set [3] (Homo sapiens) were 3.5 ng/mL (≈ 4.83 nM), 0.91 ng/mL (≈ 1.26 nM) and 1.8 ng/mL (≈ 2.49 nM), respectively.
Consider `CC[C@H](C)[C@H](NC(=O)[C@H]1CCCCN1C)C(=O)N(COC(=O)CC(C)C)[C@H](C[C@@H](OC(C)=O)c1nc(C(=O)NC)cs1)C(C)C` [Analogue 4, 3-methyl-butyric acid ({1-[2-acetoxy-2-(4-methylcarbamoyl-thiazol-2-yl) -ethyl]-2-methyl-propyl}-{3-methyl-2-[(1-methyl-piperidine-2-carbonyl)-amino]pentanoyl}-amino)-methyl ester], for which the results for the IC50 in data set [1] (setting [4]), in data set [2] (Homo sapiens) and in data set [3] (Homo sapiens) were 0.3 ng/mL (≈ 0.46 nM), 0.35 ng/mL (≈ 0.537 nM) and 0.22 ng/mL (≈ 0.337 nM), respectively. In data set [1], the “Cytotoxicity / activity in words” value is recorded as “maintained good activity”.
Regarding `CC[C@H](C)[C@H](NC(=O)[C@H]1CCCCN1C)C(=O)N(COC(=O)CC(C)C)[C@H](C[C@@H](OC(C)=O)c1nc(C(=O)O)cs1)C(C)C` [Analogue 5, 2-[1-acetoxy-4-methyl-3-((3-methyl-butyryloxymethyl)-{3-methyl-2-[(1-methyl-piperidine-2-carbonyl)-amino]-pentanoyl}-amino)-pentyl]-thiazole-4-carboxylic acid], the IC50 in data set [1] (setting [4]) is 2.2 ng/mL (≈ 3.44 nM); in data set [2] (Homo sapiens), 0.35 ng/mL (≈ 0.548 nM); in data set [3] (Homo sapiens) it was 1.5 ng/mL (≈ 2.35 nM). Also, in data set [1], the “Cytotoxicity / activity in words” value is “maintained good activity”.
Take `CC[C@H](C)[C@H](NC(=O)CN(C)C)C(=O)N(COC(=O)CC(C)C)[C@H](C[C@@H](OC(C)=O)c1nc(C(=O)N[C@@H](Cc2ccccc2)C[C@H](C)C(=O)O)cs1)C(C)C` [Analogue 6, 4-[(2-{1-acetoxy-3-[[2-(2-dimethylamino-cetylamino)-3-methylpentanoyl]-(3-methyl-butyryloxymethyl)-amino]-4-methyl-pentyl}-thiazole-4-carbonyl)-amino]-2-methyl-5-phenyl-pentanoic acid]: the IC50 came to 0.04 ng/mL (≈ 0.0508 nM) in data set [1] (setting [4]), 0.01 ng/mL (≈ 0.0127 nM) in data set [2] (Homo sapiens) and 0.029 ng/mL (≈ 0.0368 nM) in data set [3] (Homo sapiens). In addition, the “Cytotoxicity / activity in words” value in data set [1] is recorded as “essentially equipotent with tubulysin D”. Besides, in data set [2], the “Activity in SW-480 compared with tubulysin D, in words” value was “more active than tubulysin D”.
On to `CC[C@H](C)[C@H](NC(C)=O)C(=O)N(COC(=O)CC(C)C)[C@H](C[C@@H](OC(C)=O)c1nc(C(=O)N[C@@H](Cc2ccccc2)C[C@H](C)C(=O)O)cs1)C(C)C` [Analogue 7, 4-[(2-{1-acetoxy-3-[(2-acetylamino-3-methyl-pentanoyl)-(3-methyl-butyryloxymethyl)-amino]-4-methyl-pentyl}-thiazole-4-carbonyl)-amino]-2-methyl-5-phenyl-pentanoic acid], for which the values for the IC50 in data set [1] (setting [4]), in data set [2] (Homo sapiens) and in data set [3] (Homo sapiens) were 120 ng/mL (≈ 161 nM), 15 ng/mL (≈ 20.1 nM) and 80 ng/mL (≈ 107 nM), respectively. In addition, the “Cytotoxicity / activity in words” value in data set [1] is listed as “drastic decrease in activity”.
As for `CC[C@H](C)[C@H](N=[N+]=[N-])C(=O)N(COC(=O)CC(C)C)[C@H](C[C@@H](OC(C)=O)c1nc(C(=O)N[C@@H](Cc2ccccc2)C[C@H](C)C(=O)O)cs1)C(C)C` [Analogue 8, 4-[(2-{1-acetoxy-3-[(2-azido-3-metlzyl-pentanoyl)-(3-methylbutyryloxymethyl)-amino]-4-methyl-pentyl}-thiazole-4-carbonyl)-amino]-2-methyl-5-phenyl-pentanoic acid], the values for the IC50 in data set [1] (setting [4]), in data set [2] (Homo sapiens) and in data set [3] (Homo sapiens) were 45 ng/mL (≈ 61.7 nM), 8.8 ng/mL (≈ 12.1 nM) and 40 ng/mL (≈ 54.9 nM), respectively. In addition, the “Cytotoxicity / activity in words” value in data set [1] was “drastic decrease in activity”.
